We go through five molecules from PubChem BioAssay AID1061 (NMMLSC, 2008).

Activity calls are given as the source filed them. How the calls were made is not given here.

In this test the target is N-formyl peptide receptor 2 (Homo sapiens) (UniProt P25090). The experiment in a line: FPR2 antagonism measured by calcium flux – cell-based, calcium response, secondary assay, SAR follow-up (AID 1061). As to conditions: FPRL1-expressing cells, antagonist mode, at 100 µM, active compounds read high. A general note: Calcium assays in cells follow changes in intracellular calcium, usually with a dye or a luminescent sensor.
N-formyl peptide receptor 2 (Homo sapiens), sequence (P25090 whole entry, looked up): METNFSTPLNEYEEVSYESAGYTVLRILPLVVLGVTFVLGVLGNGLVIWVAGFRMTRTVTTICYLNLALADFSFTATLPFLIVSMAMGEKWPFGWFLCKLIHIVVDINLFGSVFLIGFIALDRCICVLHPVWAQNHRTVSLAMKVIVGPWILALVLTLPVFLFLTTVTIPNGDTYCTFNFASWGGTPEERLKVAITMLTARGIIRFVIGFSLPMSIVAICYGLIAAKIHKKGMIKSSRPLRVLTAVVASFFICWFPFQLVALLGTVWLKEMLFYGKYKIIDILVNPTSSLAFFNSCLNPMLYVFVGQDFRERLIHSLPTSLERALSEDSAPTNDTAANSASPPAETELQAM

Turning to `COc1ccc(CC(=O)Nc2cc(-c3cn4cccnc4n3)ccc2OC)cc1`, the inhibition is 75%.
Under `CCC(=O)Nc1cc(-c2cn3cccnc3n2)ccc1OC` stands 36% (inactive); under `COc1ccc(-c2cc(C(F)(F)F)nc(N3CCN(Cc4ccccc4)CC3)n2)cc1OC`, 48% (inactive).
On to `COc1ccc(-c2cn3cccnc3n2)cc1NC(=O)C1CC1`, for which the inhibition is 79%.
For the molecule `COc1ccc(-c2cn3cccnc3n2)cc1NC(=O)C(C)C`, the inhibition was 93%.

As usually defined, the inhibition is the change of the read-out against control, counted positive when it falls.
